What was measured:
Test in all cases: relative viability (nuclei count vs DMSO), 5 days (fraction); higher = more cells survive
[1] = compound: C1=CC=C2C(=C1)N=C(S2)C(C#N)C3=NC(=NC=C3)NCCC4=CN=CC=C4 + COc1cc2c(Oc3ccc(NC(=O)C4(C(=O)Nc5ccc(F)cc5)CC4)cc3F)ccnc2cc1OCCCN1CCOCC1 [Foretinib] (partner 0.25 µM)
Procedure, shortened: (§1)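 Nuclei were stained with Hoechst during a one-step fixation (final 0.05% Triton X-100, 1% formaldehyde, 1 ug/ml Hoechst) carried out 5 days after dosing, then counted on 4× images. The cells, lung cancer lines in 1536-well plates, had been dosed by pin tool the day after seeding with one drug alone or a fixed anchor-drug dose plus five library-drug doses (not always all listed) in √10 steps. Relative viability is the nuclei count in treated wells divided by that in vehicle wells, and each value is the median of duplicate plates.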

NVP-TAE684 + Dasatinib = compound: COc1cc(N2CCC(N3CCN(C)CC3)CC2)ccc1Nc1ncc(Cl)c(Nc2ccccc2S(=O)(=O)C(C)C)n1 [NVP-TAE684] + Cc1nc(Nc2ncc(C(=O)Nc3c(C)cccc3Cl)s2)cc(N2CCN(CCO)CC2)n1 [Dasatinib] (partner 0.075 µM)
Procedure, shortened: as §1

Vandetanib + Alpelisib = compound: COc1cc2/c(=N/c3ccc(Br)cc3F)nc[nH]c2cc1OCC1CCN(C)CC1 [Vandetanib] + Cc1nc(NC(=O)N2CCC[C@H]2C(N)=O)sc1-c1ccnc(C(C)(C)C(F)(F)F)c1 [Alpelisib] (partner 2 µM)
Procedure, shortened: as §1

Vandetanib + Phenformin = compound: COc1cc2/c(=N/c3ccc(Br)cc3F)nc[nH]c2cc1OCC1CCN(C)CC1 [Vandetanib] + N=C(N)NC(=N)NCCc1ccccc1 [Phenformin] (partner 250 µM)
Procedure, shortened: as §1

| Cell Line | relative viability ([1]; first compound 0.005 µM) | relative viability ([1]; first compound 0.01581 µM) | relative viability ([1]; first compound 0.05 µM) | relative viability ([1]; first compound 0.1581 µM) | relative viability ([1]; first compound 0.5 µM) | relative viability (NVP-TAE684 + Dasatinib; first compound 0.2 µM) | relative viability (NVP-TAE684 + Dasatinib; first compound 0.6325 µM) | relative viability (NVP-TAE684 + Dasatinib; first compound 2 µM) | relative viability (Vandetanib + Alpelisib; first compound 0.02 µM) | relative viability (Vandetanib + Alpelisib; first compound 0.06325 µM) | relative viability (Vandetanib + Alpelisib; first compound 0.2 µM) | relative viability (Vandetanib + Alpelisib; first compound 0.6325 µM) | relative viability (Vandetanib + Alpelisib; first compound 2 µM) | relative viability (Vandetanib + Phenformin; first compound 0.02 µM) | relative viability (Vandetanib + Phenformin; first compound 0.06325 µM) | relative viability (Vandetanib + Phenformin; first compound 0.2 µM) | relative viability (Vandetanib + Phenformin; first compound 0.6325 µM) | relative viability (Vandetanib + Phenformin; first compound 2 µM) |
| --- | --- | --- | --- | --- | --- | --- | --- | --- | --- | --- | --- | --- | --- | --- | --- | --- | --- | --- |
| LOU-NH91 | 0.942 | 0.884 | 0.863 | 0.9 | 0.925 | 0.544 | 0.453 | 0.231 | 0.753 | 0.619 | 0.539 | 0.551 | 0.481 | 0.709 | 0.619 | 0.537 | 0.509 | 0.51 |
| LU99A | 0.727 | 0.853 | 0.701 | 0.843 | 0.789 | 0.475 | 0.392 | 0.179 | 0.52 | 0.446 | 0.511 | 0.414 | 0.596 | 0.876 | 0.818 | 0.577 | 0.766 | 0.886 |
| LXF-289 | 0.898 | 1.02 | 0.988 | 1.01 | 0.826 | 0.191 | 0.141 | 0.111 | 1.05 | 1 | 1.02 | 1.03 | 1.04 | 0.503 | 0.5 | 0.499 | 0.489 | 0.509 |
| NCI-H23 | 0.83 | 0.995 | 0.873 | 1.02 | 1.07 |  | 0.638 | 0.249 | 0.609 | 0.613 | 0.566 | 0.772 | 0.532 | 0.763 | 0.733 | 0.8 | 0.777 | 0.742 |
| NCI-H322M | 0.887 | 0.983 | 0.838 | 0.972 | 0.982 | 0.241 | 0.223 | 0.246 | 0.772 | 0.746 | 0.777 | 0.709 | 0.866 | 0.7 | 0.731 | 0.852 | 0.622 | 0.493 |
| NCI-H358 | 0.635 | 0.677 | 0.776 | 0.772 | 0.642 | 0.162 | 0.136 | 0.112 | 0.741 | 0.733 | 0.175 | 0.533 | 0.385 | 0.295 | 0.275 | 0.265 | 0.217 | 0.26 |
| NCI-H441 |  | 0.902 | 0.913 | 1.1 | 0.908 | 0.461 | 0.398 | 0.216 | 0.795 | 0.535 | 0.896 | 0.848 | 0.728 | 0.849 | 0.783 | 0.898 | 0.916 | 0.717 |
| NCI-H460 | 0.969 | 1.15 | 1.06 | 1.08 | 1.08 | 0.703 | 0.285 | 0.0445 | 0.503 | 0.556 | 0.0233 | 0.434 | 0.419 | 0.498 | 0.48 | 0.544 | 0.49 | 0.48 |
| NCI-H520 | 0.718 | 0.983 | 0.853 | 0.878 | 0.842 | 0.17 | 0.196 | 0.139 | 0.832 | 0.924 | 1.04 | 0.868 | 0.921 | 0.563 | 0.58 | 0.481 | 0.518 | 0.548 |
| NCI-H596 | 0.656 | 0.955 | 0.741 | 0.853 | 0.971 | 0.629 | 0.397 | 0.286 | 0.515 | 0.518 | 0.618 | 0.593 | 0.453 | 0.917 | 0.623 | 0.698 | 0.747 | 0.698 |
| NCI-H647 | 1.08 | 1.27 | 1.28 | 1.32 | 1.14 | 0.0949 | 0.103 | 0.0648 | 1.03 | 1.1 | 1.11 | 1.1 | 0.786 | 0.524 | 0.51 | 0.412 | 0.513 | 0.501 |
| NCI-H650 | 0.946 |  | 0.993 | 0.942 | 1.1 | 0.513 | 0.376 | 0.262 | 1.13 | 0.998 | 1.08 | 1.04 | 0.905 | 0.464 | 0.448 |  | 0.472 | 0.364 |
| NCI-H661 | 1.07 | 1.04 | 0.943 | 1.03 | 1.11 | 1.09 | 0.677 | 0.622 | 0.602 | 0.565 | 0.604 | 0.441 | 0.582 | 0.265 | 0.284 | 0.269 | 0.279 | 0.271 |
| NCI-H727 | 1.07 | 0.73 | 0.922 | 1.03 | 0.809 | 0.383 | 0.273 | 0.232 | 0.619 | 0.56 | 0.405 | 0.496 | 0.322 | 0.565 | 0.468 | 0.712 | 0.283 | 0.448 |
| NCI-H838 | 0.981 | 1.04 | 0.99 | 0.928 | 0.926 | 0.295 | 0.23 | 0.238 | 0.98 | 0.957 | 0.991 | 1.04 | 1.05 | 0.533 | 0.579 | 0.617 | 0.542 | 0.646 |
| NCI-H1355 | 0.929 | 1.06 | 0.96 | 1.08 | 0.923 | 0.673 | 0.534 | 0.372 | 0.811 | 0.772 | 0.466 | 0.958 | 0.822 | 0.436 | 0.461 | 0.431 | 0.448 | 0.406 |
| NCI-H1395 | 0.868 | 0.912 | 1.05 | 0.996 | 0.967 | 0.408 | 0.387 | 0.317 | 1.03 | 1.28 | 1.22 | 1.04 | 0.998 | 0.472 | 0.429 | 0.427 | 0.439 | 0.458 |
| NCI-H1437 | 1.26 | 1.3 | 1.27 | 1.32 | 1.23 | 0.363 | 0.272 | 0.128 | 0.922 | 0.965 | 0.94 | 1 | 0.902 | 0.271 | 0.3 | 0.345 | 0.272 | 0.299 |

From the supplement of paper PMC10307832
